# In patent publication US20260015322A1, “DELIVERY OF THERAPEUTIC ALKALOID COMPOUNDS” (priority 2022, published 2026):
# Read-outs that look alike come from different tables or passages of the source. Marks after values point to notes of the source that are not given here.
# How the values were obtained:
# [1] = Metabolic Stability in Human Hepatocytes; type: in vitro ADME; settings: cryopreserved human hepatocytes, 5×10^5 viable cells/mL, 37° C.
# Protocol: A 2.5 uL aliquot of 100 μM test compound was incubated with 247.5 uL of cryopreserved hepatocytes suspended in serum-free incubation medium at 5×10^5 viable cells/mL. The mixture was incubated at 37° C. and shaken at 500 rpm for the designated time points (0.5, 15, 30, 60, 90, or 120 min). At each time point, 25 μL aliquot of incubation mixture was transferred to 125 μL of cold acetonitrile containing internal standard, followed by centrifugation for 30 min at 3,220 g. 100 μL of supernatant was mixed with 100 μL of distilled water for analysis by LC-MS/MS. Peak areas were determined from extracted ion chromatograms and in vitro half-life (t1/2) was determined from the concentration vs time regression slope, in vitro t1/2=0.693/k. Conversion of the in vitro t1/2 (in min) into the in vitro intrinsic clearance (in vitro CLint, in μL/min/10^6 cells) is done using: in vitro CLint=kV/N.
# [2] = Plasma Stability Assay (Example A3), human plasma; type: in vitro ADME; settings: 10 μM, 37° C., prodrug remaining
# Description: (§1) The data is represented in the table below.
# [3] = Plasma Stability Assay (Example A3), rat plasma; type: in vitro ADME; settings: 10 μM, 37° C., prodrug remaining
# Description: as §1
# [4] = Plasma Stability Assay (Example A2), mouse plasma; type: in vitro ADME; settings: for Metabolite (%): mouse; for Prodrug (%): Mouse Plasma, 37° C., prodrug remaining
# Protocol: (§2) Each test was carried out in duplicate for each time point; 0 min, 15 min, 30 min, 60 min, 120, 240 min. […]
# [5] = Pharmacokinetics of 358, single IV 2 mg/kg, plasma and brain; type: in vivo, male C57BL/6 mice; settings: 358 IV 2 mg/kg, mice
# Protocol: Total fifteen male mice were used in this study with n=3 mice/time point with sparse sampling study design. Animals were administered through intravenous route with solution formulation of 358 at 2 mg/kg dose.
# The extraction procedure for plasma/brain samples and the spiked plasma/brain calibration standards were identical (PMSF Stabilized Plasma and Brain used for Preparation of calibration standards):
# (§3) A 20 μL of study sample plasma/brain or spiked plasma/brain calibration standard was added to individual pre-labeled micro-centrifuge tubes followed by 200 μL of internal standard prepared in acetonitrile (Rosuvastatin+Cetrizine, 50 ng/mL) was added except for blank, where 200 μL of acetonitrile was added. Samples were vortexed for 5 minutes. Samples were centrifuged for 10 minutes at a speed of 4000 rpm at 4° C. Following centrifugation, 200 μL of clear supernatant was transferred in 96 well plates and analyzed using LC-MS/MS.
# Note: Brain samples were diluted (1-part of tissue: 2-part of buffer) and homogenized. The homogenate was submitted for bioanalysis and the concentrations (ng/mL) received were corrected with dilution factor (3×) and the final reported concentrations were represented in ng/g.
# The plasma and brain concentration-time data of 358 and 001 were used for the pharmacokinetic analysis.
# [6] = Plasma Stability Assay (Example A2), human plasma; type: in vitro ADME; settings: 37° C., prodrug remaining
# Protocol: as §2
# [7] = type: in vivo, male C57BL/6 mice; settings: 323 IV 2 mg/kg, mice; for CL: marked NR (not reportable)
# Protocol: Total fifteen male mice were used in this study with n=3 mice/time point with sparse sampling study design. Animals were administered through intravenous route with solution formulation of 323 at 2 mg/kg dose.
# as §3, with “The extraction procedure for plasma/brain samples and the spiked plasma/brain calibration standards were identical (PMSF Stabilized Plasma and Brain used for Preparation of calibration standards): A” for “A”
# Brain samples were diluted (1-part of tissue: 2-part of buffer) and homogenized. The homogenate was submitted for bioanalysis and the concentrations (ng/mL) received were corrected with dilution factor (3×) and the final reported concentrations were represented in ng/g.
# The plasma and brain concentration-time data of 323 and 001 were used for the pharmacokinetic analysis.
# [8] = Hydrolysis Assay - Condition 2 (DI Water); type: physicochemical; settings: 25° C., 0.5 mM
# Protocol: 50 uL of compound (10 mM) in DMSO was diluted into 950 uL of DI water to a final concentration of 0.5 mM. The hydrolysis kinetics were conducted at 25° C. and measured by LCMS at a certain time interval.
# (§4) The corresponding LCMS chromatogram were recorded and the conversions were calculated by integration of each peak.
# (§5) • 1) LCMS spectra were obtained using Agilent 1200G1956A or SHIMADZU LCMS-2020. • Standard LCMS conditions were as follows (running time 1.55 minutes): • Acidic condition: Mobile Phase A: 0.0375% TFA in water (v/v). Mobile Phase B: 0.01875% TFA in acetonitrile (v/v); Column: Kinetex EVO C18 30*2.1 mm, 5 μm. • Basic condition: Mobile Phase A: 0.025% NH3·H2O in water (v/v). Mobile Phase B: Acetonitrile; Column: Kinetex EVO C18 2.1×30 mm, 5 μm. • 2) Conversion (%)=peak area 1/(peak area 1+peak area 2)*100%, peak area 1 is the integration of hydrolyzed product, peak area 2 is the integration of starting material.
# [9] = Hydrolysis Assay - Condition 1 (SGF); type: physicochemical; settings: Condition 1: SGF with pepsin pH 1.5, 37° C., 0.5 mM
# Protocol: 50 uL of compound (10 mM) in DMSO was diluted into 950 uL of Simulated Gastric Fluid (SGF) with pepsin (pH 1.5) to a final concentration of 0.5 mM. The hydrolysis kinetics were conducted at 37° C. and measured by LCMS at a certain time interval.
# as §4, §5
smiles,measurement,setting,value
"COc1ccc([C@@]23CCC(OP4(=O)OCCCO4)=C[C@@H]2N(C)CC3)cc1OC [Compound 422, 2-(((3aS,7aS)-3a-(3,4-dimethoxyphenyl)-1-methyl-2,3,3a,4,5,7a-hexahydro-1H-indol-6-yl)oxy)-1,3,2-dioxaphosphinane 2-oxide]",t1/2,[1],366 min
same,Prodrug (%),[2]; 0 min,100.0%
same,Prodrug (%),[2]; 10 min,89.4%
same,Prodrug (%),[2]; 30 min,73.1%
same,Prodrug (%),[2]; 60 min,62.4%
same,Prodrug (%),[2]; 120 min,39.2%
same,Prodrug (%),[2]; 240 min,19.6%
same,Prodrug (%),[3]; 0 min,100.0%
same,Prodrug (%),[3]; 10 min,>99%
same,Prodrug (%),[3]; 30 min,>99%
same,Prodrug (%),[3]; 60 min,>99%
same,Prodrug (%),[3]; 120 min,91.0%
same,Prodrug (%),[3]; 240 min,76.8%
"COc1ccc([C@@]23CCC(OP4(=O)OC(C)CC(C)O4)=C[C@@H]2N(C)CC3)cc1OC (stereo partly drawn) [Compound 423, 2-(((3aS,7aS)-3a-(3,4-dimethoxyphenyl)-1-methyl-2,3,3a,4,5,7a-hexahydro-1H-indol-6-yl)oxy)-4,6-dimethyl-1,3,2-dioxaphosphinane 2-oxide]",t1/2,[1],57 min
same,Prodrug (%),[2]; 0 min,100.00%
same,Prodrug (%),[2]; 10 min,>99%
same,Prodrug (%),[2]; 30 min,>99%
same,Prodrug (%),[2]; 60 min,98.77%
same,Prodrug (%),[2]; 120 min,97.80%
same,Prodrug (%),[2]; 240 min,89.67%
same,Prodrug (%),[3]; 0 min,100.00%
same,Prodrug (%),[3]; 10 min,>99%
same,Prodrug (%),[3]; 30 min,>99%
same,Prodrug (%),[3]; 60 min,91.05%
same,Prodrug (%),[3]; 120 min,83.29%
same,Prodrug (%),[3]; 240 min,67.32%
"COc1ccc([C@@]23CCC(OC(=O)OC(C)(C)C)=C[C@@H]2N(C)CC3)cc1OC [Compound 358, [(3aS,7aS)-3a-(3,4-dimethoxyphenyl)-1-methyl-3,4,5,7a-tetrahydro-2H-indol-6-yl]tert-butyl carbonate]",Metabolite (%),"[4]; 0 min, 5 µM",58.8%
same,Metabolite (%),"[4]; 15 min, 5 µM",65.4%
same,Metabolite (%),"[4]; 30 min, 5 µM",73.2%
same,Metabolite (%),[4]; 60 min,76.9%
same,Metabolite (%),[4]; 120 min,61.8%
same,Metabolite (%),[4]; 240 min,62.2%
same,brain concentrations quantifiable up to,[5],≤ 0.08 h
same,plasma concentrations quantifiable up to,[5],up to 0.25 h
"COc1ccc([C@@]23CCC(OP4(=O)OCC(C)(C)CO4)=C[C@@H]2N(C)CC3)cc1OC [Compound 323, 2-[[(3aS,7aS)-3a-(3,4-dimethoxyphenyl)-1-methyl-3,4,5,7a-tetrahydro-2H-indol-6-yl]oxy]-5,5-dimethyl-1,3,2λ5-dioxaphosphinane 2-oxide]",Prodrug (%),[4]; 0 min,100.0%
same,Prodrug (%),[4]; 15 min,>99%
same,Prodrug (%),[4]; 30 min,>99%
same,Prodrug (%),[4]; 60 min,94.1%
same,Prodrug (%),[4]; 120 min,71.9%
same,Prodrug (%),[4]; 240 min,50.3%
same,t1/2,[1],327 min
same,Prodrug (%),[6]; 0 min,100%
same,Prodrug (%),[6]; 15 min,76.6%
same,Prodrug (%),[6]; 30 min,64.5%
same,Prodrug (%),[6]; 60 min,38.1%
same,Prodrug (%),[6]; 120 min,12.8%
same,Prodrug (%),[6]; 240 min,1.60%
same,Prodrug (%),[2]; 0 min,100.00%
same,Prodrug (%),[2]; 10 min,86.9%
same,Prodrug (%),[2]; 30 min,70.8%
same,Prodrug (%),[2]; 60 min,52.7%
same,Prodrug (%),[2]; 120 min,27.0%
same,Prodrug (%),[2]; 240 min,9.3%
same,Brain-Kp,[7]; 323,0.07
same,brain concentrations quantifiable up to,[7]; 323,≤ 0.5 h
same,Brain concentrations (mean),"[7]; 323, 0.08 h",22.15 ng/g
same,Plasma concentrations (mean),"[7]; 323, 0.08 h",332.15 ng/mL
same,Brain concentrations (mean),"[7]; 323, 0.25 h",8.97 ng/g
same,Plasma concentrations (mean),"[7]; 323, 0.25 h",91.59 ng/mL
same,Plasma concentrations (mean),"[7]; 323, 0.5 h",26.34 ng/mL
same,Brain concentrations (mean),"[7]; 323, 0.5 h, average of two values",4.43^d ng/g
same,Plasma concentrations (mean),"[7]; 323, 1 h",4.05 ng/mL
same,Plasma concentrations (mean),"[7]; 323, 2 h, single value, excluded from data analysis",1.03^c ng/mL
same,C0 (back extrapolated concentration),[7]; 323 in Brain,33.89 ng/mL
same,T1/2,[7]; 323 in Brain,10.8 min
same,Vss,[7]; 323 in Brain,61.73 L/kg
same,CL,[7]; 323 in Brain,NR (4350.55) mL/min/kg
same,AUClast,[7]; 323 in Plasma,96.00 ng·h/mL
same,C0 (back extrapolated concentration),[7]; 323 in Plasma,609.01 ng/mL
same,T1/2,[7]; 323 in Plasma,10.2 min
same,Vss,[7]; 323 in Plasma,3.25 L/kg
same,CL,[7]; 323 in Plasma,NR (343.84) mL/min/kg
same,Conversion (%),[8]; 1 min,0%
same,Conversion (%),[8]; 5 min,0%
same,Conversion (%),[8]; 30 min,0%
same,Conversion (%),[8]; 1 h,0%
same,Conversion (%),[8]; 4 h,0%
same,Conversion (%),[8]; 24 h,0%
same,Prodrug (%),[3]; 0 min,100.00%
same,Prodrug (%),[3]; 10 min,>99%
same,Prodrug (%),[3]; 30 min,95.5%
same,Prodrug (%),[3]; 60 min,82.0%
same,Prodrug (%),[3]; 120 min,58.8%
same,Prodrug (%),[3]; 240 min,34.0%
same,Conversion (%),[9]; 1 min,0%
same,Conversion (%),[9]; 5 min,0%
same,Conversion (%),[9]; 30 min,0%
same,Conversion (%),[9]; 1 h,0%
same,Conversion (%),[9]; 4 h,0%
same,Conversion (%),[9]; 24 h,0%
